Measurements as given in patent US4104390A, “Thieno [2,3-c] and [3,2-c] pyridines” (Parcor, priority 1976, dated 1978).
Where two headings read alike, the source gives them in different places.

Columns and labels:
[1] = tested on: collagen-induced blood-platelet aggregation; assay: Collagen-induced blood-platelet aggregation; type: in vivo, Wistar rats; conditions: rats, 100 mg/kg orally, 3 hours after treatment, collagen (bovine tendon extract), with respect to control group; for inhibition at 100 mg/kg: Rattus norvegicus, po, read-out: Percent inhibition of blood-platelet aggregation, Collagen
Experimental: (§1) Blood is taken from the jugular vein of Wistar rats. From this citrated blood, and after centrifugation, is reconstituted a plasma containing 600,000 ± 20,000 blood-platelets per ml which is used in all aggregation determinations.
(§2) 0.4 ml plasma is placed in a siliconized tube provided with a magnet bar, also siliconized. The tube is introduced into an aggregometer coupled with an apparatus for recording optical density variations. When light transmission has reached a stable value, 0.5 ml of a solution containing 10 μM A.D.P. (Adenosine-Di-Phosphate) is introduced into the tube.
(§3) Blood-platelet aggregation causes an increase of light transmission followed by a decrease subsequent to the deaggregation phase.
(§4) The maximal optical density variation thus determined characterizes the intensity of the aggregation.
The A.D.P. solution is substituted with a collagen solution (bovine tendon extract).
(§5) Different groups of 20 rats are used, each group being orally administered a test derivative at a dosage of 100 mg/kg.

[2] = tested on: A.D.P.-induced blood-platelet aggregation; assay: A.D.P.-induced blood-platelet aggregation; type: in vivo, Wistar rats; conditions: rats, 100 mg/kg orally, 3 hours after treatment, 10 μM A.D.P. solution, with respect to control group; for inhibition at 100 mg/kg: Rattus norvegicus, po, read-out: Percent inhibition of blood-platelet aggregation, A.D.P.
Experimental: as §1, §2, §3, §4, §5

[3] = LD50, intravenous route, mice; conditions: mouse, in vivo
[4] = tested on: carrageenin-induced localized edema; assay: Carrageenin-induced localized edema method; type: in vivo; conditions: rats, 100 mg/kg orally at -1, 0, 1 and 2.5 hours; for inhibition in vivo at 100 mg/kg: Rattus norvegicus, po
Experimental: (a) Carrageenin-induced localized edema method
0.1 ml of a 1% carrageenin solution is injected in the metatarsal flexor muscles of the right hind limb of rats at time 0. The animals of the treated group are additionally orally administered 100 mg/kg of the test derivative, respectively one hour prior to injection of the phlogogenic agent, simultaneously with said injection, and then 1 hour and 2.5 hours thereafter. The determinations effected by means of a ROCH micrometer at times 0, 1 hour, 2 hours, 3 hours and 5 hours after carrageenin administration make it possible to determine, as a function of time, the percent anti-inflammatory activity with respect to the reference group.

[5] = tested on: ovalbumen-induced systemic edema; assay: Ovalbumen-induced systemic edema method; type: in vivo; conditions: rats, 100 mg/kg orally 1 hour before and with ovalbumen; for inhibition in vivo at 100 mg/kg: Rattus norvegicus, po
Experimental: (b) Ovalbumen-induced systemic edema method
Simultaneous injection of 1 ml ovalbumen and 0.5 ml of a 1% aqueous Evans Blue solution is effected in rats. On the other hand, the animals of the treated group are administered orally 100 mg/kg of the test derivative one hour prior to ovalbumen administration and simultaneously with said administration. The intensity of the phenomenon thus induced is scored according to a scale from 1 to 5 depending on the progress of the inflammatory syndrome. The mean intensity of the edem and the percent decrease of the edema reaction with respect to the control group are thus determined as a function of time.

[6] = 1 hour after carrageenin, read-out: Percent anti-inflammatory activity after 1 hour
[7] = 2 hours after carrageenin, read-out: Percent anti-inflammatory activity after 2 hours
[8] = 3 hours after carrageenin, read-out: Percent anti-inflammatory activity after 3 hours
[9] = 5 hours after carrageenin, read-out: Percent anti-inflammatory activity after 5 hours
[10] = 2 hours after ovalbumen, read-out: Percent anti-inflammatory activity after 2 hours
[11] = 3 hours after ovalbumen, read-out: Percent anti-inflammatory activity after 3 hours

Row | Compound | inhibition at 100 mg/kg [1] [%] | inhibition at 100 mg/kg [2] [%] | LD50 at 24 h [3] [mg/kg] | inhibition in vivo at 100 mg/kg [4, 6] [%] | inhibition in vivo at 100 mg/kg [4, 7] [%] | inhibition in vivo at 100 mg/kg [4, 8] [%] | inhibition in vivo at 100 mg/kg [4, 9] [%] | inhibition in vivo at 100 mg/kg [5, 10] [%] | inhibition in vivo at 100 mg/kg [5, 11] [%] | Percent inhibition of blood-platelet aggregation, Collagen [1] [%] | Percent inhibition of blood-platelet aggregation, A.D.P. [2] [%] | Percent anti-inflammatory activity after 1 hour ([4]; 1 hour after carrageenin) [%] | Percent anti-inflammatory activity after 2 hours ([4]; 2 hours after carrageenin) [%] | Percent anti-inflammatory activity after 3 hours ([4]; 3 hours after carrageenin) [%] | Percent anti-inflammatory activity after 5 hours ([4]; 5 hours after carrageenin) [%] | Percent anti-inflammatory activity after 2 hours ([5]; 2 hours after ovalbumen) [%] | Percent anti-inflammatory activity after 3 hours ([5]; 3 hours after ovalbumen) [%]
1 | CC1NCc2sccc2C1c1ccccc1 (stereo not drawn) [derivative n°1, 5-Methyl-4-phenyl-4,5,6,7-tetrahydro-thieno[2,3-c]pyridine] | 96.2 | 64.9 | 63 | 37 | 43 | 45 | 47 | 47 | 54 |  |  |  |  |  |  |  | 
2 | CN1Cc2sccc2C(c2ccccc2)C1 (stereo not drawn) [derivative n°5, 6-Methyl-4-phenyl-4,5,6,7-tetrahydro-thieno[2,3-c]pyridine] | 93.8 | 63.6 | 61 | 37 | 45 | 50 | 51 | 44 | 51 |  |  |  |  |  |  |  | 
3 | c1ccc(C2CNCc3sccc32)cc1 (stereo not drawn) [derivative n°3, 4-Phenyl-4,5,6,7-tetrahydro-thieno[2,3-c]pyridine] | 95.6 | 64.1 | 69 | 41 | 46 | 50 | 51 | 52 | 59 |  |  |  |  |  |  |  | 
4 | Cc1ccc(N2Cc3sccc3C(c3ccccc3)C2)cc1 (stereo not drawn) [derivative n°18, 4-Phenyl-6-p.tolyl-4,5,6,7-tetrahydro-thieno[2,3-c]pyridine] |  |  |  |  |  |  |  |  |  | 93.5 | 62.5 | 40 | 48 | 53 | 56 | 47 | 56
5 | COC(=O)c1ccccc1CN1Cc2sccc2C(c2ccccc2)C1 (stereo not drawn) [derivative n°15, 6-o.Methoxycarbonylbenzyl-4-phenyl-4,5,6,7-tetrahydro-thieno[2,3-c]pyridine] | 92.3 | 61.7 |  | 39 | 47 | 50 | 54 | 54 | 62 |  |  |  |  |  |  |  | 
6 | Clc1ccccc1CN1Cc2sccc2C(c2ccccc2)C1 (stereo not drawn) [derivative n°11, 6-o.Chlorobenzyl-4-phenyl-4,5,6,7-tetrahydrothieno[2,3-c]pyridine] | 91.2 | 62.8 |  | 39 | 45 | 49 | 55 | 51 | 58 |  |  |  |  |  |  |  | 
7 | COC(=O)c1ccccc1CN1Cc2ccsc2C(c2ccccc2)C1 (stereo not drawn) [derivative n°28, 5-o.Methoxycarbonylbenzyl-7-phenyl-4,5,6,7-tetrahydro-thieno[3,2-c]pyridine] | 92.2 | 62.3 |  | 41 | 47 | 51 | 53 | 45 | 52 |  |  |  |  |  |  |  | 
8 | Clc1ccccc1CN1Cc2ccsc2C(c2ccccc2)C1 (stereo not drawn) [derivative n°19, 5-o.Chlorobenzyl-7-phenyl-4,5,6,7-tetrahydro-thieno[3,2-c]pyridine] | 93.7 | 62.3 |  | 47 | 53 | 54 | 56 | 49 | 57 |  |  |  |  |  |  |  | 
9 | CCCCN1Cc2ccsc2C(c2ccccc2)C1 (stereo not drawn) [derivative n°21, 5-Butyl-7-phenyl-4,5,6,7-tetrahydro-thieno[3,2-c]pyridine] | 94 | 62.2 |  | 38 | 44 | 46 | 49 | 51 | 57 |  |  |  |  |  |  |  | 
10 | N#Cc1ccccc1CN1Cc2sccc2C(c2ccccc2)C1 (stereo not drawn) [derivative n°8, 6-o.Cyanobenzyl-4-phenyl-4,5,6,7-tetrahydro-thieno[2,3-c]pyridine] | 92.5 | 63.2 |  | 42 | 49 | 53 | 56 | 46 | 54 |  |  |  |  |  |  |  | 
11 | c1ccc(CCN2Cc3sccc3C(c3ccccc3)C2)cc1 (stereo not drawn) [derivative n°25, 6-Phenethyl-4-phenyl-4,5,6,7-tetrahydro-thieno[2,3-c]pyridine] | 93.8 | 64.1 |  | 47 | 52 | 56 | 60 | 44 | 51 |  |  |  |  |  |  |  | 
12 | Fc1ccccc1CN1Cc2sccc2C(c2ccccc2)C1 (stereo not drawn) [derivative n°13, 6-o.Fluorobenzyl-4-phenyl-4,5,6,7-tetrahydrothieno[2,3-c]pyridine] | 94.8 | 64.3 |  | 46 | 51 | 55 | 57 | 43 | 50 |  |  |  |  |  |  |  | 
